Assay results as given in US20260069606A1, “Oxidative Stress and Diabetes Treatment with Cobinamide” (The Regents of the University of California, priority 2022, published 2026).

Experiments:
[1] = Tolerability in non-diabetic and streptozotocin-diabetic mice (weight, liver and renal function); type: in vivo
Source text: The water was replenished twice a week.
Over the three-month treatment period, the non-diabetic mice gained an average of 4.1±0.8 g. while the diabetic mice lost an average of 0.3 g, with wide variation in weight change among the latter mice.

[2] = Reaction with hydrogen peroxide, H2O2-specific electrode; type: biochemical
Experimental: FIGS. 2A-2F. Cobinamide Functions as a Catalase Mimetic and Reacts with Peroxynitrite. […]. Hydrogen peroxide (final concentration 50 μM) was added to solutions containing increasing concentrations of Chi(III) (FIG. 2A) or Chi(II) (FIG. 2C), and the H2O2 concentration was measured over time using a H2O2-specific electrode. The log of the velocity in the presence of Chi(III) (FIG. 2B) or Chi(II) (v) (FIG. 2D) over the velocity in their absence (Vo) is plotted against the log of their concentrations at 20 min over their concentrations at zero time. These plots yield a reaction order with respect to Chi(III) and Cbi(II) of 0.7. The experiments were repeated three times with similar results. Dotted lines show 95% confidence intervals. FIG. 2E. […] The Chi(III) spectra are slightly different from those shown in FIG. 1G because at pH 11, dihydroxo-cobinamide is generated, whereas at pH 7.1, aquohydroxo-cobinamide is the predominant species. The spectra of aquohydroxo- and dihydroxo-cobinamide are known to be different^65. FIG. 2F. Varying concentrations of Chi(II) from 1 to 10 μM were mixed with 10 μM peroxynitrite in a stopped-flow instrument, and absorption at 315 nm was monitored for 0.5 sec. The results for 5 μM Cbi(II) are shown; red circles are the observed data, and the black line is a two-phase non-linear regression curve generated by Prism 7.04 software. […] The experiment was repeated three times with similar results. Dotted lines show 95% confidence intervals.
(§1) Table I. Reaction Rates of Cobinamide (Cbi), Cobalamin, Imisopasem, and MnTBAP with Reactive Oxygen and Nitrogen Species. Reactions of the indicated compounds with O2·^−, ONOO^−, and ·NO are all second order reactions with rate constants in units of M^−1 s^−1. The reactions of Cbi(III) and Cbi(II) with H2O2 are third order with rate constant units of M^−2 s^−1. Chi(II) and cobalamin(II) bind nitric oxide, so a Ka is shown in units of M^−1. For the new data presented in this study, rate constants were measured for O2·^− using a hypoxanthine-xanthine oxidase-cytochrome c system, for H2O2 using a H2O2-specific sensor (World Precision Instruments), and for ONOO^− using a stopped-flow instrument. Published rate constants for Cu/Zn and Mn superoxide dismutases (SOD) and catalase are shown for reference.^a,b Letters and numbers in parenthesis refer to footnotes and references, respectively.
Both Cbi(III) and Chi(II) react with H2O2, and the reaction was essentially first order with respect to Cbi(III) and Cbi(II) (FIG. 2A-D), and second order with respect to H2O2 for both cobinamide species. […]

[3] = Plasma cobinamide concentration in mice given cobinamide in drinking water; conditions: discussion summary
Experimental: (§2) Male C57BL/6NHsd mice (20 weeks old) were housed three to four animals per cage in a temperature-controlled environment with a 12-h light/dark cycle and fed standard rodent chow with ad libitum access to food and water. After one week of acclimatization, mice weighing 30±3 g were injected intraperitoneally for five consecutive days with either saline (n=20) or 50 mg/kg streptozotocin (n=20) 69. […] The 16 diabetic mice and a corresponding number of the saline-injected, non-diabetic mice were split randomly in half to receive either plain drinking water or histidyl-cobinamide in the drinking water. The four groups of animals are referred to as: diabetic vehicle (D-Veh); diabetic, cobinamide-treated (D-Cbi); non-diabetic, vehicle (ND-Veh); and non-diabetic, cobinamide-treated (ND-Cbi). The histidyl-cobinamide concentration was 1 mM for the ND-Cbi mice, but because the diabetic mice drank more than the non-diabetic mice, the cobinamide concentration for the D-Cbi mice was decreased accordingly. The water was replenished twice a week.
(§3) After three months of treatment, the mice were weighed, fasted for 6 h, and then underwent an intraperitoneal glucose tolerance test (IPGTT) using 2 g/kg of a 20% glucose solution. Blood glucose concentrations were measured just before the glucose injection (time 0, fasting specimen) and at 15, 30, 60, and 120 min following the injection. […] Two days later, the mice were euthanized by inducing deep anesthesia with 200 mg/kg ketamine and 40 mg/kg xylazine administered by intraperitoneal injection, followed by exsanguination via an open cardiac puncture.
(§4) Type I diabetic mice were generated using streptozotocin, and then provided cobinamide in the drinking water for three months.

[4] = system: mouse model of human familial aortic aneurysm; conditions: 1 mM cobinamide in drinking water; cited from earlier work
[5] = mouse, in vivo
Experimental: as §2, §3, §4

[6] = Reaction with superoxide, hypoxanthine-xanthine oxidase-cytochrome c reduction system; type: biochemical; conditions: for Apparent rate constant, reaction with superoxide (O2·^−): second order, hypoxanthine-xanthine oxidase-cytochrome c system, new data of this study
Experimental: FIGS. 1A-1G. Cobinamide Functions as a Superoxide Dismutase Mimetic. FIGS. 1A-1B. Chemical structures of aquohydroxo-cobinamide (FIG. 1A) and hydroxo-cobalamin (FIG. 1B). FIGS. 1C, 1E. Increasing concentrations of Chi(III) (FIG. 1C) or Chi(II) (FIG. 1E) were incubated in a hypoxanthine-xanthine oxidase-cytochrome c-catalase system for measuring O2·^−, with the change in absorbance at 550 nm (ΔAbs) plotted versus time. A no substrate (no hypoxanthine) control was included. FIGS. 1D, 1F. The calculated rate of change of absorbance at 550 nm in the absence of Chi(III) or Chi(II) (Vo) divided by the calculated rate in their presence (v) is plotted against the Chi(III) (FIG. 1D) or Chi(II) (FIG. 1F) concentration, respectively. The slope of the fitted line was used to calculate the apparent rate constant according to the following equation: kCbi=slope×kcytochrome c×[cytochrome c], where kcytochrome c=1.4×10^6 M^−1 s^−1 and [cytochrome c]=70 μM^70. The data shown are the mean of duplicate samples from one experiment, with similar results found in two additional experiments. Dotted lines show 95% confidence intervals. FIG. 1G. A 20 μM solution of Chi(III) in DMSO was scanned from 280 to 600 nm yielding the spectrum shown as a black line. An equimolar amount of […] (KO2) dissolved in dimethyl sulfoxide (DMSO) was added and the solution was scanned immediately, yielding the grey line. […] The experiment was conducted three times with identical results.
as §1
The reaction of cobinamide with O2·^− was studied in two different systems, generating O2·^− using a hypoxanthine-xanthine oxidase system.
The first system contained 100 μM hypoxanthine and 0.1 unit xanthine oxidase in 20 mM sodium phosphate buffer, pH 7.1. The amount of O2·^− was measured by following reduction of ferric-cytochrome c (70 μM) at 550 nm as described previously^65. Catalase was included (32 units per sample), because xanthine oxidase generates both O2·^− and H2O2, and the latter can re-oxidize the ferro-cytochrome c product^34,66. The reaction was followed for 10 min. A no substrate blank lacking hypoxanthine was included.
In both systems, the experiments were conducted in the absence and presence of the indicated concentrations of Cbi(III) or Chi(II) 65.
Catalase was included in the reaction mixture, because the hypoxanthine-xanthine oxidase system also generates H2O2 and the latter can oxidize the ferro-cytochrome c product back to ferric-cytochrome c, thereby interfering with the kinetic measurement^34.

## C/C1=C2/[N-][C@H]([C@H](CC(N)=O)[C@@]2(C)CCC(=O)NC[C@@H](C)O)[C@]2(C)N=C(/C(C)=C3N=C(/C=C4N=C1[C@@H](CCC(N)=O)C\4(C)C)[C@@H](CCC(N)=O)[C@]\3(C)CC(N)=O)[C@@H](CCC(N)=O)[C@]2(C)CC(N)=O.[Co+3] [cobinamide, aquohydroxo-cobinamide]
[1]; mouse, in vivo
  Average weight gain of cobinamide-treated diabetic mice: 0.63 g
  Effect on weight: did not significantly affect weight
  Liver function and renal function tests: no effect
[1]; non-diabetic and diabetic mice, three months in drinking water
  Tolerability: well tolerated
[2]; 50 μM H2O2
  Reaction order with respect to the cobinamide species in the reaction with H2O2: 0.7
[2]; third order, H2O2-specific sensor, new data of this study, listed as Cbi(III)
  Apparent rate constant, reaction with hydrogen peroxide (H2O2): 8.0 × 10^2 M^−2 s^−1
[3]
  Concentration in the plasma of mice that received cobinamide in drinking water: 0.1 to 0.5 µM
[4]
  Aortic oxidative stress, pathological changes and aneurysm formation: blocked the increase in oxidative stress and pathological changes, and prevented aneurysm formation
  Clinical or laboratory evidence of toxicity: no clinical or laboratory evidence of toxicity
[5]
  Plasma cobinamide concentration, diabetic mice: 0.55 ± 0.36 µM
  Plasma cobinamide concentration, non-diabetic mice: 0.11 ± 0.07 µM
[6]; hypoxanthine-xanthine oxidase-cytochrome c reduction system, catalase included, exponent shared in the sentence
  Apparent rate constants, reaction with O2·^−: 1.12e+08 M⁻¹ s⁻¹
[6]; listed as Cbi(III)
  Apparent rate constant, reaction with superoxide (O2·^−): 1.1e+08 M⁻¹ s⁻¹
[6]; listed as Chi(III)
  Apparent rate constant, reaction with superoxide (O2·^−): 1.12e+08 M⁻¹ s⁻¹
